Earlier results in US20080069886A1, “Spironolactone nanoparticles, compositions and methods related thereto” (JAGOTEC AG, priority 2001, published 2008).

solubility in water: 2.8 mg/100 ml
SMILES: CC(=O)S[C@@H]1CC2=CC(=O)CC[C@]2(C)[C@H]2CC[C@@]3(C)[C@@H](CC[C@@]34CCC(=O)O4)[C@H]12 [Spironolactone]
